# According to patent US20210162009A1, “CHEMOKINE VARIANTS AS IMMUNE STIMULANTS” (THE MEDICAL COLLEGE OF WISCONSIN, INC., priority 2017, published 2021):
# Key:
# melanoma metastasis = settings: cited from earlier work; for blocking of tumor metastasis: side-by-side equimolar comparison, 5 μM
# [1] = Translational diffusion measurements (dimerisation state); format: physicochemical
# Source text: The lines connecting the cysteines show where the intra-and intermolecular disulfide bonds are. A) CXCL12-α2 locked dimer amino acid sequence with the conserved intramolecular disulfide bonds (black lines) and the engineered intermolecular disulfide bonds (red lines) illustrated. B) SDS-PAGE of CXCL12-αand CXCL12-α2 treated with and without dithiothreitol (DTT). […] D) N-terminal peptides corresponding to the first thirty-eight amino acids of CXCR4 are illustrated. The sequence for p38 is identical to that of CXCR4 except for an additional N-terminal Gly-Ser dipeptide (cloning artifact) and the C28A substitution (green) introduced to prevent oxidative peptide dimer formation. The sulfated peptides are identical to p38 except for the inclusion of sulfotyrosine at position 21 for p38-sY1 and at positions 7, 12 and 21 for p38-sY3.
# [2] = tested on: 5T33 multiple myeloma cells; assay: Mobilization of GFP-tagged 5T33 multiple myeloma cells into the blood; format: in vivo, mice; settings: 50 μM subcutaneous, 1 hour, GFP+ cells by flow cytometry
# Procedure: Representative flow cytometry plots are on the left measuring side scatter counts (SSC) and GFP+-5T33 multiple myeloma cells in the circulation before and after treatment shown in the right panels. n=5 mice per treatment group.
# This mobilization is compared to the mobilization following administration of AMD3100. Mice bearing GFP-tagged 5T33 multiple myeloma cells were bled immediately prior to subcutaneous injection of either the CXCL12 locked dimer (50 μM) or AMD3100 (4 mM). Individual mice were re-bled 1-hour later and GFP+ myeloma tumor cells in peripheral circulation quantified by flow cytometry. Representative flow cytometry plots are on the left with GFP+-5T33 multiple myeloma cells in the circulation before and after treatment shown in the right panels. n=5 mice per treatment group.
# lymphocytes = assay: Mobilization of lymphocytes into peripheral blood and out of bone marrow; format: in vivo, mice
# Procedure: (§1) FIGS. 6A-6C show mobilization of lymphocytes into the peripheral blood (A) and out of the bone marrow (B) 1 hour after subcutaneous injection of 5 μM (0.8 mg/kg) CXCL12 locked dimer 104 or 4000 μM (20 mg/kg) plerixafor/AMD3100 102. Control mice received an injection of the chemokine vehicle (Veh), sterile PBS 100. Values are mean±SEM, n=3-4 mice per group. Asterisks (****)=[…].
# The chemokine CXCL12 is produced by bone marrow stromal cells (17). A single dose infusion of plerixafor/AMD3100 competitively antagonizes CXCR4 to disrupt stromal CXCL12 interactions with bone marrow cells, mobilizing HSC to enter into the peripheral blood (6). […] Importantly, the 5 μM the CXCL12 locked dimer dose used is the same concentration we have used to block tumor metastasis in vivo and where plerixafor/AMD3100 is ineffective (FIGS. 5A-5B).
# After blood collection, treated and control mice were sacrificed and the bone marrow of each femur flushed with PBS. Peripheral blood and marrow samples were centrifuged (1800×g for 15 min at room temperature), the plasma removed, and the leukocytes in the buffy coat collected, an aliquot used to enumerate the total cell population using hemocytometry, and the remaining cells transferred to flow cytometry tubes. Peripheral and bone marrow immunocytes were incubated with fluorescence-tagged antibodies to detect the HSC markers CD34, CD11, SCA1, CD90, CD38, Lin and CXCR4, or the T cell and B cell markers CD3 and CD19, respectively.
# Control mice received an injection of the chemokine vehicle (Veh), sterile PBS 100. Values are mean ±SEM, n=3-4 mice per group. Asterisks (****)=P≤0.001.
# CD34+CXCR4+ stem cells = assay: Mobilization of CD34+CXCR4+ hematopoietic stem cells; format: in vivo, mice
# Procedure: as §1
# FIGS. 8A-8C show mobilization of hematopoietic stem cells by the CXCL12 locked dimer. Mice were bled (baseline) prior to subcutaneous injection of LD at a final concentration of 5 μM. Mice were re-bled 15-minutes (FIG. 8A), 2-hours (FIG. 8B) or 4-hours (FIG. 8C) later. Two separate cohorts of mice (shown by circles and squares) were treated (n=3 per group) and show consistent increases in the number of CD34+ stem cells in the circulation.
# After blood collection, treated and control mice were sacrificed and the bone marrow of each femur flushed with PBS. […] Peripheral and bone marrow immunocytes were incubated with fluorescence-tagged antibodies to detect the HSC markers CD34, CD11, SCA1, CD90, CD38, Lin and CXCR4, or the T cell and B cell markers CD3 and CD19, respectively.
# FIGS. 8A-8C also show mobilization of hematopoietic stem cells by the CXCL12 locked dimer. […] Levels of CD34+CXCR4+ stem cells within circulating blood were detected and quantified using multiparametric flow cytometry.
# [3] = Toxicity: serum AST, ALT, BUN; format: in vivo; settings: 5 μM twice weekly for 3 weeks, mice
# Procedure: Serum levels of aspartate aminotransferase (AST) and alanine aminotransferase (ALT) were measured using serologic assays to measure hepatic toxicity. Serum levels of blood urea nitrogen (BUN) were monitored to detect kidney damage.
# Toxicity—Blood, bone marrow, and tissue levels of CXCL12 were measured using a commercially available sandwich ELISA assay (20-22). The ELISA will detect both endogenous and exogenous CXCL12. Toxicity is monitored using histopathologic assessment of heart, and kidney, and serum assays of hepatic (e.g. AST, ALT, AP) and kidney (e.g. BUN, creatinine) biomarkers, using standard veterinary assays. […] Published data (Roy et al., 2014) indicate twice weekly injection of 5 μM chemokine protein is well tolerated, with no change in body weight or appearance after 120 days in tumor xenografted mice.
# Heparin binding = assay: Heparin binding
# Source text: Further, in addition to binding CXCR4, CXCL12 also binds to heparin found in the extracellular matrix on cell surfaces. […] Amino acid substitutions in CXCL12, including K24S, K27S, or K24S/K27S can prevent heparin binding and increase the half-life of CXCL12 in vivo; therefore, similar mutations in CXCL12-α2 would likely prevent heparin binding and increase the in vivo half-life of the dimer.
# CXCR4 [4] = molecular target: T1, CXCR4 (Homo sapiens, UniProt P61073); settings: 10 nM CXCL12 variants, with or without pertussis toxin; cited from earlier work
# [5] = relative to natural CXCL12; cited from earlier work
# CXCR4 [6] = molecular target: T1, CXCR4; settings: 125I-CXCL12 displacement; read-out: Kd for binding CXCR4; cited from earlier work
# [7] = fitted, 20 mM sodium phosphate pH 7.4
# T1 sequence (P61073 whole entry): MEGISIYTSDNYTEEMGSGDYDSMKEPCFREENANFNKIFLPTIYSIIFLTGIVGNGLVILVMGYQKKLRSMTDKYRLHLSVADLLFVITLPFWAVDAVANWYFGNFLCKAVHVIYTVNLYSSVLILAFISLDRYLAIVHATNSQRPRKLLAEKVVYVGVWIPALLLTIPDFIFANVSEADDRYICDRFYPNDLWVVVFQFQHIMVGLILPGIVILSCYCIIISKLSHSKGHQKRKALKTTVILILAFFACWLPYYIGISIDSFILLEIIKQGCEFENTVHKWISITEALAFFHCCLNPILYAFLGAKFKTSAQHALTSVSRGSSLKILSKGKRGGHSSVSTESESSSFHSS
Compound,blocking of tumor metastasis (melanoma metastasis),"Diffusion coefficient Ds ([1]; 10, 50 and 150 μM protein)",mobilization of multiple myeloma cells into the blood [2],"bone marrow resident lymphocytes (lymphocytes; 5 μM, subcutaneous, 1 hour)","mobilization of hematopoietic cells into peripheral circulation (lymphocytes; 5 μM, subcutaneous, 1 hour)","ability to mobilize lymphocytes, locked dimer vs AMD3100 (lymphocytes; 1 hour after s.c. 5 μM (0.8 mg/kg) locked dimer or 4000 μM (20 mg/kg) plerixafor/AMD3100)","potency relative to plerixafor for mobilizing lymphocytes, mg/kg basis (lymphocytes; vs plerixafor)","potency relative to plerixafor for mobilizing lymphocytes, molar basis (lymphocytes; vs plerixafor, also monocytes and neutrophils)","number of CD34+ stem cells in circulation (CD34+CXCR4+ stem cells; 5 μM s.c., 15 minutes, 2 hours or 4 hours, two cohorts)",mobilization of CXCR4+CD34+ hematopoietic stem cells (FIG. 6C) (CD34+CXCR4+ stem cells; FIG. 6C),"hepatic or kidney toxicity (AST, ALT, BUN) [3]",heparin binding (Heparin binding),G protein dependent intracellular calcium flux (CXCR4 [4]),inhibition of melanoma metastasis (melanoma metastasis; dose response),"melanoma metastasis, comparison with plerixafor/AMD3100 (melanoma metastasis; equimolar concentrations)",stability against enzymatic digestion in serum [5],"dimer Ds value [1, 7]","pure monomer Ds value [1, 7]",Kd (CXCR4 [6])
"c1cc(CN2CCCNCCNCCCNCC2)ccc1CN1CCCNCCNCCCNCC1 [plerixafor/AMD3100, plerixafor, reference compound]",ineffective,–,–,–,–,–,–,–,–,–,–,–,–,–,–,–,–,–,–
"CXCL12 locked dimer: covalently locked dimer comprising two CXCL12 L36C/A65C sequences (SEQ ID NO: 1), linked by intermolecular disulfide bonds",blocked tumor metastasis,1.08-1.09 ×10^−6 cm^2s^−1,mobilizes multiple myeloma cells into the blood,concomitant decrease in bone marrow resident lymphocytes,potently stimulated mobilization of hematopoietic cells into peripheral circulation,no statistical difference,3 X,1000 ×,consistent increases in the number of CD34+ stem cells in circulation,mobilization of CXCR4+CD34+ hematopoietic stem cells,little hepatic or kidney toxicity,also binds heparin,activates the expected and prototypical G protein dependent intracellular calcium flux,dose dependently inhibits melanoma metastasis,more effective than plerixafor/AMD3100,enhanced stability against enzymatic digestion in serum,–,–,–
"wild-type CXCL12: wild type CXCL12 chemokine (SEQ ID NO:3), natural ligand for CXCR4",–,–,–,–,–,–,–,–,–,–,little hepatic or kidney toxicity,–,–,–,–,rapidly inactivated in serum,~1.0 ×10^−6 cm^2s^−1,~1.6 ×10^−6 cm^2s^−1,25 nM
